How the values were obtained:
H460 = NSCLC = assay: Antitumor activity on tumor models: H460; type: in vivo, mice
Source text: (§1) This broad spectrum of anticancer activity was confirmed in mice transplanted with human tumor xenografts, including NSCLC (H460, A549), prostate ca. (JCA-1), glioblastoma (GBM/7), gastric ca. (MKN28), osteosarcoma (U2OS), ovarian ca. (A2780/Dx, A2780/DDP) and colon (HT29, CoBA) carcinomas as well as in murine lung cancer (M109) and leukaemia model (L1210).

lung carcinoma NCI H460 = assay: Antitumoral activity in nude mice implanted s.c. with NCI H460 tumour fragments (Table 1); conditions: for Efficacy (TVI %): evaluated 5–10 days after the last treatment
Method: For the in vivo studies, the solubilization was carried out in 10% DMSO in bidistilled water, being impossible the solubilization in saline, and the administration for the oral route was carried out at a volume of 10 ml/kg.
Atimic nu/nu Swiss mice (Charles River, Calco, Italia), ageing 10–12 weeks were used. The animals were maintained in laminar flow rooms, according to the guidelines of the United Kingdom Co-ordination Committee Cancer Research. Experimental protocols were approved by the Ethical Committee for animal experimentation of Istituto Nazionale per lo Studio e Cura dei Tumori.
Tumour fragments of about 2×2×2 mm coming from mice to which were inoculated s.c. 10^6 cells NCI H460/topo, were implanted s.c. bilaterally in groups of 5 mice each.
Twice a week, using a Vernier caliper, the width, minimum diameter (l), length and maximum diameter (L) of the tumors were measured, in mm. The tumour volume (mm^3) was calculated according to the formula I^2×L/2. Efficacy of the molecule was evaluated as TVI percent of the treated group versus the control group according to the formula TVI%=100−(T/C×100), wherein T is the mean value of the tumour volume of the treated group and C of control one.

JCA-1 prostate ca = assay: Antitumor activity on tumor models: JCA-1; type: in vivo, mice
Source text: as §1

HT29 colon ca = assay: Antitumor activity on tumor models: HT29; type: in vivo, mice
Source text: as §1

topoisomerase i = target: T1, topoisomerase i (Homo sapiens, UniProt P11387); assay: Persistence of topoisomerase I-mediated DNA cleavage after addition of 0.6 M NaCl; type: biochemical; conditions: for Reversibility / persistence of the DNA cleavages (in words): after sodium chloride (0.6 M), about 10 minutes; for PERSISTENCE (%) of DNA cleavage on selected sites: drug 10 μm, 20 minutes incubation, then sodium chloride (0.6 M), examined after about 10 minutes
T1 sequence (P11387 1-765): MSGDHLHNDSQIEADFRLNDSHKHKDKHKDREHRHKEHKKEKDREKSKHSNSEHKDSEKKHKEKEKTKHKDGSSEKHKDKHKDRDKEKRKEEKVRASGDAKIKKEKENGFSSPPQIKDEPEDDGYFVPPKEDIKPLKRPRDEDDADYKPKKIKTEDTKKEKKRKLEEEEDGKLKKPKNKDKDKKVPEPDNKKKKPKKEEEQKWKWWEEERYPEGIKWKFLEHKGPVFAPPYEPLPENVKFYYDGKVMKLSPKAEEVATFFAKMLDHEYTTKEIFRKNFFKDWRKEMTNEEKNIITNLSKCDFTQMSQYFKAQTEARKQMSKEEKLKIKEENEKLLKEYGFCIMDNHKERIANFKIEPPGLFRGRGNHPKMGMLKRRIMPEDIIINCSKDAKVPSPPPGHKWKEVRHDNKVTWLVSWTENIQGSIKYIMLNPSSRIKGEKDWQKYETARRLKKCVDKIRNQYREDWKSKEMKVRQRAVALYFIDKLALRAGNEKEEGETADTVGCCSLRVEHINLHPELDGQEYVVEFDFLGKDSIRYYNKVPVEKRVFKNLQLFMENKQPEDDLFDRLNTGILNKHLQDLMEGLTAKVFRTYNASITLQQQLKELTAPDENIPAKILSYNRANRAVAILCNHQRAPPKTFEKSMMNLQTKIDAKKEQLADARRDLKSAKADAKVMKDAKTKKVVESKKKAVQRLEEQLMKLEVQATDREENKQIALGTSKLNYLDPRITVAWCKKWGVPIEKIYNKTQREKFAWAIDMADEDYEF
Method: An important drawback of conventional camptothecins is the reversibility of the their bond in the ternary complex (drug-DNA-enzyme).
After 20 minutes of incubation of the drug in the reaction mixture containing labelled DNA and the purified enzyme, sodium chloride (0.6 M) was added with the scope of assisting the dissociation of the ternary complex.

GBM/7 glioblastoma = assay: Antitumor activity on tumor models: GBM/7; type: in vivo, mice
Source text: as §1

CoBA colon ca = assay: Antitumor activity on tumor models: CoBA; type: in vivo, mice
Source text: as §1

L1210 = murine leukemia = assay: Antitumor activity on tumor models: L1210 leukemia, increase in life span; type: in vivo, mice
Source text: as §1

A2780 ovarian ca = assay: Antitumor activity on tumor models: A2780; type: in vivo, mice; conditions: A2780, 2 mg/kg
Source text: as §1

DU145 prostate ca = assay: Antitumor activity on tumor models: DU145; type: in vivo, mice; conditions: DU145, 2 mg/kg
A2780/DDP ovarian ca = assay: Antitumor activity on tumor models: A2780/DDP; type: in vivo, mice
Source text: as §1

A2780/Dx ovarian ca = assay: Antitumor activity on tumor models: A2780/Dx; type: in vivo, mice; conditions: for TVI % / no evidence of tumor at the end of the treatment lasting for about 10 days from the last administration: A2780/Dx
Source text: as §1
The high cytotoxic potency of the compounds of the present invention, herein represented in an exemplary way with one of the preferrred compounds, CPT 184, is also reflected by the potent antitumor activity. […] Moreover, the compounds of the present invention, in particular the CPT 184, were able to induce 100% CR in the A2780/DX tumor characterized by a MDR-phenotype.

U87 glioblastoma = assay: Antitumor activity on tumor models: U87; type: in vivo, mice
IGROV-1 ovarian ca = assay: Antitumor activity on tumor models: IGROV-1; type: in vivo, mice

## CC[C@@]1(O)C(=O)OCc2c1cc1n(c2=O)Cc2c-1nc1ccccc1c2C=NOCc1ccccc1 [CPT 172, 7-Benzyloxyiminomethylcamptothecin]
H460 = NSCLC; H460, 25 mg/kg
  TVI %: 97%
Lung carcinoma NCI H460; 2 mg/kg p.o., qd × 5 × 10w
  Toxicity Body weight loss (%): 0%
  Toxicity Lethality: 0/3
  Efficacy (TVI %): 90%
Lung carcinoma NCI H460; 8 mg/kg p.o., q4d × 4
  Efficacy (TVI %): 77%
Lung carcinoma NCI H460; 16 mg/kg p.o., q4d × 4
  Efficacy (TVI %): 88%
Lung carcinoma NCI H460; 24 mg/kg p.o., q4d × 4
  Toxicity Body weight loss (%): 6%
  Toxicity Lethality: 0/4
  Efficacy (TVI %): 97%
JCA-1 prostate ca; JCA-1, 20 mg/kg
  TVI %: 98%
HT29 colon ca; HT29, 25 mg/kg
  TVI %: 88%
Topoisomerase i
  Reversibility / persistence of the DNA cleavages (in words): marked persistence
  PERSISTENCE (%) of DNA cleavage on selected sites: 80%
GBM/7 glioblastoma; GBM/7, 20 mg/kg
  TVI %: 93%
  no evidence of tumor at the end of the treatment lasting for about 10 days from the last administration: (3/11*)
GBM/7 glioblastoma; GBM/7, 25 mg/kg
  TVI %: 98%
  no evidence of tumor at the end of the treatment lasting for about 10 days from the last administration: (9/12*)
CoBA colon ca; 20 mg/kg
  TVI %: 84%
CoBA colon ca; 25 mg/kg
  TVI %: 93%
L1210 = murine leukemia; L1210, 25 mg/kg
  ILS % = percent increase in life span: > 400%

## CC[C@@]1(O)C(=O)OCc2c1cc1n(c2=O)Cc2c-1nc1ccccc1c2C=NO [CPT 181, 7-hydroxyiminomethylcamptothecin, reference compound]
Lung carcinoma NCI H460; 15 mg/kg p.o., q4d × 4
  Toxicity Body weight loss (%): 0%
  Toxicity Lethality: 0/4
  Efficacy (TVI %): 40%
Lung carcinoma NCI H460; 25 mg/kg p.o., q4d × 4
  Toxicity Body weight loss (%): 0%
  Toxicity Lethality: 0/4
  Efficacy (TVI %): 70%
Topoisomerase i
  PERSISTENCE (%) of DNA cleavage on selected sites: 28%

## CC[C@@]1(O)C(=O)OCc2c1cc1n(c2=O)Cc2c-1nc1ccccc1c2C=NOC(C)(C)C [CPT 184, 7-T-Butoxyiminomethylcamptothecin]
A2780 ovarian ca
  TVI %: 100%
  no evidence of tumor at the end of the treatment lasting for about 10 days from the last administration: (1/8*)
H460 = NSCLC; H460, 2 mg/kg
  TVI %: 99%
  no evidence of tumor at the end of the treatment lasting for about 10 days from the last administration: (5/8*)
Lung carcinoma NCI H460; 2 mg/kg p.o., q4d × 4
  Toxicity Body weight loss (%): 0%
  Toxicity Lethality: 0/5
  Efficacy (TVI %): 100%
Lung carcinoma NCI H460; 5 mg/kg p.o., q10d × 6
  Toxicity Body weight loss (%): 9%
  Toxicity Lethality: 0/4
  Efficacy (TVI %): 99%
DU145 prostate ca
  TVI %: 95%
A2780/DDP ovarian ca; 2 mg/kg
  TVI %: 77%
A2780/DDP ovarian ca; 3 mg/kg
  TVI %: 90%
JCA-1 prostate ca; JCA-1, 2 mg/kg
  TVI %: 98%
  no evidence of tumor at the end of the treatment lasting for about 10 days from the last administration: (5/8*)
A2780/Dx ovarian ca; A2780/DX tumor characterized by a MDR-phenotype
  CR (complete regressions) induced: 100%
A2780/Dx ovarian ca; 2 mg/kg
  TVI %: 92%
  no evidence of tumor at the end of the treatment lasting for about 10 days from the last administration: (1/8*)
A2780/Dx ovarian ca; 3 mg/kg
  TVI %: 100%
  no evidence of tumor at the end of the treatment lasting for about 10 days from the last administration: (8/8*)
HT29 colon ca; HT29, 2 mg/kg
  TVI %: 92%
U87 glioblastoma; U87, 2 mg/kg
  TVI %: 80%
U87 glioblastoma; U87, 3 mg/kg
  TVI %: 87%
Topoisomerase i
  Reversibility / persistence of the DNA cleavages (in words): marked persistence
  PERSISTENCE (%) of DNA cleavage on selected sites: 72%
IGROV-1 ovarian ca; IGROV-1, 2 mg/kg
  TVI %: 93%
IGROV-1 ovarian ca; IGROV-1, 3 mg/kg
  TVI %: 96%
GBM/7 glioblastoma; GBM/7, 2 mg/kg
  TVI %: 97%
  no evidence of tumor at the end of the treatment lasting for about 10 days from the last administration: (3/10*)
GBM/7 glioblastoma; GBM/7, 3 mg/kg
  TVI %: 98%
  no evidence of tumor at the end of the treatment lasting for about 10 days from the last administration: (2/8*)
CoBA colon ca; 2 mg/kg
  TVI %: 84%
CoBA colon ca; 3 mg/kg
  TVI %: 87%
L1210 = murine leukemia; L1210, 2 mg/kg
  ILS % = percent increase in life span: > 400%
  cured mice alive 120 d from leukemia injection: *** (>80% of cured mice alive 120 d from leukemia injection.)
